Results: patent EP4755881A1 (Wuhan Createrna Science and Technology Co., Ltd., priority 2023, dated 2025)

target: hLPAR1 (human lysophosphatidic acid receptor 1, Accession No.: NM_001401.4) (Homo sapiens, UniProt Q92633); experiment: cell-based; details: LPAR1 inhibitory activity IC50, Table 1; FLIPR method, CHO-K1 cells overexpressing hLPAR1
Procedure: The antagonist properties of the compounds in the present disclosure were determined using the FLIPR (Fluorometric Imaging Plate Reader) method in CHO-K1 cells (Chinese Hamster Ovary cells K1, ATCC) overexpressing hLPAR1 (human lysophosphatidic acid receptor 1, Accession No.: NM_001401.4).
CHO-K1 cells stably expressing hLPAR1 were placed in a cell culture incubator at 37°C with 5% CO2 and cultured in F-12 medium containing 10% FBS (fetal bovine serum, Gibco, 10099-141), 1% penicillin-streptomycin (Gibco, 15140-122), and 0.4 mg/mL Hygromycin B (Gibco, 10687010). 18-24 hours before the FLIPR experiment, the cells were seeded into a 96-well plate at a density of 250,000 cells/mL (25,000 cells/well) and incubated overnight in the cell culture incubator. On the day of the experiment, the medium was removed, and the cells were washed with FLIPR buffer (2.5 mM probenecid (Thermo, P36400), 1.3 mM CaCl2, 3.3 mM Na2CO3, 1 mM MgSO4, 20 mM HEPES (Invitrogen, 15630080), 1× HBSS (Invitrogen, 14065056), 0.1% BSA (BioSharp, 70080030)). 75 µL of […] Fluo-4 AM fluorescent dye (Thermo, F14202) was added to each well and incubated for 1.0 hour at 37°C for dye loading. The 96-well plate was then washed once with buffer, and 50 µL of buffer containing the test compound or vehicle was added to each well, followed by incubation at room temperature for 30 min. The cell plate was then placed into the FLIPR for baseline fluorescence measurement (excitation wavelength at 485 nm, emission wavelength at 525 to 535 nm). Subsequently, 50 µL/well of agonist (final concentration 1 µM oleoyl-L-α-lysophosphatidic acid sodium salt (Sigma, L7260)) or vehicle (ultrapure water) was added, and fluorescence values were measured at 1-second intervals for 2 min. Finally, the output fluorescence counts were analyzed using GraphPad Prism 9.0 software log(inhibitor) vs. response--Variable slope (four parameters) equation to calculate IC50 values.
Table 1: Inhibitory activity data of compounds against LPAR1

hLPAR1 (human lysophosphatidic acid receptor 1, Accession No.: NM_001401.4), sequence (Q92633 whole entry): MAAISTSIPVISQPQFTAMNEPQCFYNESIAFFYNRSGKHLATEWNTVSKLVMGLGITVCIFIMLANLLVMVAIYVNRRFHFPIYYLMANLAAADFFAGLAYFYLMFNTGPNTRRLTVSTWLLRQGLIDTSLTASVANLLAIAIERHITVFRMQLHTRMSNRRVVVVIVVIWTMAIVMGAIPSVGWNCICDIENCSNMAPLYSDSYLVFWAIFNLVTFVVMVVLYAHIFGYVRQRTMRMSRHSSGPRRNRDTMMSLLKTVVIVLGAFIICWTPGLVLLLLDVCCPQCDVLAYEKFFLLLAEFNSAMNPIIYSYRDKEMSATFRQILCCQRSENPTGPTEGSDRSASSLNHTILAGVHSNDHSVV

SMILES	IC50 [nM]
Cc1nc(-c2nnn(C)c2NC(=O)O[C@H](C)CC(C)(F)F)ccc1C#C[C@@H]1CCC[C@H]1C(=O)O (single isomer, unassigned) [246-A]	18.3
Cc1nc(-c2nnn(C)c2NC(=O)O[C@H](C)C23CC(C2)C3)ccc1C#CC1(CC(=O)O)CC1 [260-B]	17.4

same assay, conditions: Table 1; FLIPR method, CHO-K1 cells overexpressing hLPAR1; read-out: LPAR1 inhibitory activity IC50

SMILES	IC50 [nM]
Cc1nc(-c2nnn(C)c2NC(=O)O[C@H](C)c2ccccc2Cl)ccc1C#C[C@@H]1CCCC[C@H]1C(=O)O (mixture of isomers) [031-B, trans-2-((6-(5-((((R)-1-(2-chlorophenyl)ethoxy)carbonyl)amino)-1-methyl-1H-1,2,3-triazol-4-yl)-2-methylpyridin-3-yl)ethynyl)cyclohexane-1-carboxylic acid]	0.2
CCC(F)(F)[C@@H](C)OC(=O)Nc1c(-c2ccc(C#C[C@@H]3CC[C@H]3C(=O)O)c(C)n2)nnn1C (mixture of isomers) [212-A, trans-2-((6-(5-(((((R)-3,3-difluoropentan-2-yl)oxy)carbonyl)amino)-1-methyl-1H-1,2,3-triazol-4-yl)-2-methylpyridin-3-yl)ethynyl)cyclobutane-1-carboxylic acid]	42.1
CCC(F)(F)[C@@H](C)OC(=O)Nc1c(-c2ccc(C#C[C@@H]3CCC[C@H]3C(=O)O)c(C)n2)nnn1C (mixture of isomers) [219-A, trans-2-((6-(5-(((((R)-3,3-difluoropentan-2-yl)oxy)carbonyl)amino)-1-methyl-1H-1,2,3-triazol-4-yl)-2-methylpyridin-3-yl)ethynyl)cyclopentane-1-carboxylic acid]	3.3
Cc1nc(-c2nnn(C)c2NC(=O)O[C@H](C)CC2CC2)ccc1C#C[C@@H]1CC(F)(F)C[C@H]1C(=O)O (mixture of isomers) [compound 205, trans-2-((6-(5-(((((R)-1-cyclopropylpropan-2-yl)oxy)carbonyl)amino)-1-methyl-1H-1,2,3-triazol-4-yl)-2-methylpyridin-3-yl)ethynyl)-4,4-difluorocyclopentane-1-carboxylic acid]	3.1
Cc1nc(-c2nnn(C)c2NC(=O)OC(C)CC2CC2)ccc1C#CC1CCC1C(=O)O (single isomer, unassigned) [248-B]	19.1
Cc1nc(-c2nnn(C)c2NC(=O)OC(C)CC(C)(C)F)ccc1C#CC1CCC1C(=O)O (single isomer, unassigned) [306-B]	53.6
Cc1nc(-c2nnn(C)c2NC(=O)OC(C)C2CCCC2)ccc1C#CC1(CC(=O)O)CC1 (centres unmarked) [092', 2-(1-((6-(5-(((1-cyclopentylethoxy)carbonyl)amino)-1-methyl-1H-1,2,3-triazol-4-yl)-2-methylpyridin-3-yl)ethynyl)cyclopropyl)acetic acid]	18.7
CCCCN(C)C(=O)OCc1c(-c2ccc(C#CC3(CC(=O)O)CC3)c(C)n2)nnn1C [compound 004, 2-(1-((6-(5-(((butyl(methyl)carbamoyl)oxy)methyl)-1-methyl-1H-1,2,3-triazol-4-yl)-2-methylpyridin-3-yl)ethynyl)cyclopropyl)acetic acid]	66.3
Cc1nc(-c2nnn(C)c2NC(=O)O[C@H](C)c2ccccc2Cl)ccc1C#CC1(CC(=O)O)CC1 [compound 013, (R)-2-(1-((6-(5-(((1-(2-chlorophenyl)ethoxy)carbonyl)amino)-1-methyl-1H-1,2,3-triazol-4-yl)-2-methylpyridin-3-yl)ethynyl)cyclopropyl)acetic acid]	2.6
Cc1nc(-c2nnn(C)c2NC(=O)O[C@H](C)c2ccccc2F)ccc1C#CC1(CC(=O)O)CC1 [compound 014, (R)-2-(1-((6-(5-(((1-(2-fluorophenyl)ethoxy)carbonyl)amino)-1-methyl-1H-1,2,3-triazol-4-yl)-2-methylpyridin-3-yl)ethynyl)cyclopropyl)acetic acid]	7.7

The remaining lines, values ahead:

IC50 [nM]	SMILES
60.4	Cc1nc(-c2nnn(C)c2NC(=O)O[C@H](C)c2ccccc2F)ccc1C#C[C@@H]1CCCC[C@H]1C(=O)O (mixture of isomers) [028-B, trans-2-((6-(5-((((R)-1-(2-fluorophenyl)ethoxy)carbonyl)amino)-1-methyl-1H-1,2,3-triazol-4-yl)-2-methylpyridin-3-yl)ethynyl)cyclohexane-1-carboxylic acid]
56.2	CCCC(C)OC(=O)Nc1c(-c2ccc(C#CC3(CC(=O)O)CC3)c(C)n2)nnn1C (centres unmarked) [compound 010, 2-(1-((2-methyl-6-(1-methyl-5-(((pentan-2-yloxy)carbonyl)amino)-1H-1,2,3-triazol-4-yl)pyridin-3-yl)ethynyl)cyclopropyl)acetic acid]
50.6	Cc1nc(-c2nnn(C)c2NC(=O)OC(C)CC(C)(C)F)ccc1C#CC1CCC1C(=O)O (single isomer, unassigned) [306-A]
48.2	Cc1nc(-c2nnn(C)c2NC(=O)O[C@H](C)CC(C)(F)F)ccc1C#C[C@@H]1CC[C@H]1C(=O)O (mixture of isomers) [213-A, trans-2-((6-(5-(((((R)-4,4-difluoropentan-2-yl)oxy)carbonyl)amino)-1-methyl-1H-1,2,3-triazol-4-yl)-2-methylpyridin-3-yl)ethynyl)cyclobutane-1-carboxylic acid]
45.9	CCC[C@@H](C)OC(=O)Nc1c(-c2ccc(C#CC3(CC(=O)O)CC3)c(C)n2)nnn1C [010-A]
42	Cc1nc(-n2nnc(C)c2NC(=O)O[C@H](C)c2ccccc2Cl)ccc1C#CC1(CC(=O)O)CC1 [compound 006, (R)-2-(1-((6-(5-(((1-(2-chlorophenyl)ethoxy)carbonyl)amino)-4-methyl-1H-1,2,3-triazol-1-yl)-2-methylpyridin-3-yl)ethynyl)cyclopropyl)acetic acid]
30.2	CCCCN(C)C(=O)OCc1c(-c2ccc(C#C[C@@H]3CC(F)(F)C[C@H]3C(=O)O)c(C)n2)nnn1C (racemic) [compound 252]
22.6	Cc1nc(-c2cnn(C)c2NC(=O)O[C@H](C)c2ccccc2Cl)ccc1C#CC1(CC(=O)O)CC1 [compound 005, (R)-2-(1-((6-(5-(((1-(2-chlorophenyl)ethoxy)carbonyl)amino)-1-methyl-1H-pyrazol-4-yl)-2-methylpyridin-3-yl)ethynyl)cyclopropyl)acetic acid]
20.4	Cc1nc(-c2nnn(C)c2COC(=O)N(C)CC2CCC2)ccc1C#CC1CC(F)(F)CC1C(=O)O (racemic) [compound 362]
20.2	CCC(F)(F)[C@@H](C)OC(=O)Nc1c(-c2ccc(C#CC3(CC(=O)O)CC3)c(C)n2)nnn1C [207', (R)-2-(1-((6-(5-((((3,3-difluoropentan-2-yl)oxy)carbonyl)amino)-1-methyl-1H-1,2,3-triazol-4-yl)-2-methylpyridin-3-yl)ethynyl)cyclopropyl)acetic acid]
19.8	Cc1nc(-c2nnn(C)c2NC(=O)O[C@H](C)CC(C)(C)F)ccc1C#C[C@@H]1CCC[C@H]1C(=O)O (mixture of isomers) [244-A, trans-2-((6-(5-(((((R)-4-fluoro-4-methylpentan-2-yl)oxy)carbonyl)amino)-1-methyl-1H-1,2,3-triazol-4-yl)-2-methylpyridin-3-yl)ethynyl)cyclopentane-1-carboxylic acid]
17.6	Cc1nc(-c2nnn(C)c2NC(=O)O[C@H](C)c2ccccc2F)ccc1C#C[C@@H]1CCCC[C@H]1C(=O)O (mixture of isomers) [028-A, trans-2-((6-(5-((((R)-1-(2-fluorophenyl)ethoxy)carbonyl)amino)-1-methyl-1H-1,2,3-triazol-4-yl)-2-methylpyridin-3-yl)ethynyl)cyclohexane-1-carboxylic acid]
7	Cc1nc(-c2nnn(C)c2NC(=O)OC(C)C2CCC2)ccc1C#CC1CC(F)(F)CC1C(=O)O (centres unmarked) [242-A]
0.6	Cc1nc(-c2nnn(C)c2NC(=O)O[C@H](C)c2ccccc2Cl)ccc1C#C[C@@H]1CCCC[C@H]1C(=O)O (mixture of isomers) [031-A, trans-2-((6-(5-((((R)-1-(2-chlorophenyl)ethoxy)carbonyl)amino)-1-methyl-1H-1,2,3-triazol-4-yl)-2-methylpyridin-3-yl)ethynyl)cyclohexane-1-carboxylic acid]
0.6	Cc1nc(-c2nnn(C)c2NC(=O)OC(C)C2CCC2)ccc1C#CC1(CC(=O)O)CC1 (centres unmarked) [032-A, 2-(1-((6-(5-(((1-cyclobutylethoxy)carbonyl)amino)-1-methyl-1H-1,2,3-triazol-4-yl)-2-methylpyridin-3-yl)ethynyl)cyclopropyl)acetic acid]

same assay, conditions: read-out: LPAR1 inhibitory activity IC50; Table 1; FLIPR method, CHO-K1 cells overexpressing hLPAR1

SMILES	IC50 [nM]
Cc1nc(-c2nnn(C)c2NC(=O)OC(C)CCCF)ccc1C#CC1(CC(=O)O)CC1 (racemic) [compound 280]	75.7
Cc1nc(-c2nnn(C)c2COC(=O)N(C)CC2CCC2)ccc1C#CC1(CC(=O)O)CC1 [compound 017]	42.8
